Measurements reported in DBAASP.
In brackets after ≈: the same amount, converted by molar mass. Values belong to the molecule of their own block, whether it stands above or below them.

Tests used:
Test in all cases: ≥ marks a high value that may be exact or a test limit, other limits are often not marked, values filed in µg/mL are converted to µM
[1] = system: Aeromonas hydrophila ATCC 35654
[2] = system: Escherichia coli ATCC 25922
[3] = system: Micrococcus luteus ATCC 49732
[4] = system: Staphylococcus aureus ATCC 25923
[5] = system: Escherichia coli E416-17
[6] = system: Escherichia coli E423-17
[7] = system: Escherichia coli K-12
[8] = system: Staphylococcus aureus M838-17
[9] = system: Staphylococcus aureus USA 300
[10] = system: Bacillus megaterium ATCC 10778
[11] = system: Bacillus subtilis ATCC 6633
[12] = system: Candida albicans MDM8
[13] = system: Candida tropicalis IOC 4560
[14] = system: Enterobacter cloacae beta-12
[15] = system: Escherichia coli SBS 363
[16] = system: Micrococcus luteus A270
[17] = system: Pseudomonas aeruginosa NCIB 10421
[18] = system: Serratia marcescens ATCC 4112
[19] = system: Staphylococcus aureus ATCC 29213
[20] = system: Acinetobacter baumannii AL1851-ΔLpxA
[21] = system: Acinetobacter baumannii ATCC 19606
[22] = system: Acinetobacter baumannii Al1852-ΔLpxD
[23] = system: Citrobacter freundii DSM 30029
[24] = system: Escherichia coli DSM 1103
[25] = system: Klebsiella pneumoniae DSM 789
[26] = system: Pseudomonas aeruginosa DSM 1117
[27] = system: Salmonella enterica DSM 17058
[28] = system: Shigella sonnei DSM 5570
[29] = system: Staphylococcus aureus DSM 11729
[30] = system: Staphylococcus epidermidis DSM 28319
[31] = system: Candida albicans ATCC 24433
[32] = system: Candida parapsilosis ATCC 22019
[33] = system: Escherichia coli
[34] = system: Staphylococcus aureus
[35] = system: Trichophyton rubrum ATCC 28189
[36] = system: Escherichia coli DH5alpha
[37] = system: Pseudomonas aeruginosa NBRC 13275
[38] = system: Staphylococcus aureus NBRC 13276
[39] = system: Staphylococcus epidermidis NBRC 12298
[40] = system: Pseudomonas aeruginosa PA214
[41] = system: Pseudomonas aeruginosa PA330
[42] = system: Pseudomonas aeruginosa PAO1

MIC [36]: 3.12 µM (≈ 6.15 µg/mL) | MIC [37]: 1.56 µM (≈ 3.07 µg/mL) | MIC [38]: 6.25 µM (≈ 12.3 µg/mL) | MIC [39]: 3.12 µM (≈ 6.15 µg/mL)
SMILES: CC[C@H](C)[C@H](NC(=O)CN)C(=O)N[C@@H](CCCCN)C(=O)N[C@@H](CCCCN)C(=O)N[C@@H](Cc1ccccc1)C(=O)N[C@@H](CC(C)C)C(=O)N[C@@H](CCCCN)C(=O)N[C@@H](CO)C(=O)N[C@@H](C)C(=O)N[C@@H](CCCCN)C(=O)N[C@@H](CCCCN)C(=O)N[C@@H](Cc1ccccc1)C(=O)N[C@H](C(=O)N[C@@H](CCCCN)C(=O)N[C@@H](C)C(=O)N[C@@H](Cc1ccccc1)C(=O)N[C@@H](CCCCN)C(N)=O)C(C)C [GIKKFLKSAKKFVKAFK]

MIC [7]: 1.6 µM (≈ 3.21 µg/mL) | MIC [40]: 3.1 µM (≈ 6.21 µg/mL) | MIC [41]: 6.3 µM (≈ 12.6 µg/mL) | MIC [42]: 3.1 µM (≈ 6.21 µg/mL)
SMILES: CC(C)C[C@H](NC(=O)[C@H](C)NC(=O)[C@H](CCCCN)NC(=O)[C@H](Cc1ccccc1)NC(=O)[C@H](CC(C)C)NC(=O)[C@H](CCCCN)NC(=O)[C@H](C)NC(=O)[C@H](Cc1c[nH]c2ccccc12)NC(=O)[C@H](C)NC(=O)[C@H](CCCCN)NC(=O)[C@H](CC(C)C)NC(=O)[C@H](Cc1ccccc1)NC(=O)[C@H](CCCCN)NC(=O)[C@H](CCCCN)NC(=O)[C@H](CC(C)C)NC(=O)[C@H](C)NC(=O)[C@@H](N)CCCCN)C(N)=O [KALKKFLKAWAKLFKAL]

Continued, molecule first:

SMILES: CC[C@H](C)[C@H](NC(=O)[C@H](CC(C)C)NC(=O)[C@H](CCC(N)=O)NC(=O)[C@@H](NC(=O)[C@H](CCCN=C(N)N)NC(=O)[C@@H](NC(=O)[C@H](CS)NC(=O)[C@H](CCCCN)NC(=O)[C@@H](N)CCCN=C(N)N)C(C)C)C(C)C)C(=O)N[C@@H](CCCCN)C(=O)N[C@@H](CC(N)=O)C(=O)NCC(=O)N[C@@H](CCCCN)C(=O)N[C@@H](CCCCN)C(=O)N[C@H](C(=O)N[C@H](C(=O)N[C@@H](C)C(=O)N[C@@H](Cc1ccccc1)C(N)=O)[C@@H](C)O)[C@@H](C)CC [RKCVRVQLIKNGKKITAF]
MIC [1]: 8.4 µM (≈ 17.7 µg/mL) | MIC [2]: 8.4 µM (≈ 17.7 µg/mL) | MIC [3]: 7.2 µM (≈ 15.1 µg/mL) | MIC [4]: 7.2 µM (≈ 15.1 µg/mL)

SMILES: CC(C)C[C@H](NC(=O)[C@H](Cc1c[nH]c2ccccc12)NC(=O)[C@H](Cc1c[nH]c2ccccc12)NC(=O)[C@@H](N)Cc1c[nH]c2ccccc12)C(=O)N[C@@H](CCCN=C(N)N)C(=O)N[C@@H](CCCN=C(N)N)C(=O)N[C@@H](CCCN=C(N)N)C(=O)N[C@@H](Cc1c[nH]c2ccccc12)C(=O)O [WWWLRRRW]
MIC [2]: 16 µM (≈ 21.5 µg/mL) | MIC [5]: 16 µM (≈ 21.5 µg/mL) | MIC [6]: ≥ 32 µM | MIC [7]: 16 µM (≈ 21.5 µg/mL) | MIC [8]: 4 µM (≈ 5.38 µg/mL) | MIC [9]: 4 µM (≈ 5.38 µg/mL)

SMILES: CC[C@H](C)[C@H](NC(=O)CNC(=O)[C@H](CCC(=O)O)NC(=O)[C@H](Cc1c[nH]c2ccccc12)NC(=O)[C@@H](NC(=O)[C@H](CCCCN)NC(=O)CNC(=O)[C@H](CC(C)C)NC(=O)[C@@H](N)Cc1c[nH]c2ccccc12)[C@@H](C)CC)C(=O)N[C@@H](CCCCN)C(=O)N[C@@H](CO)C(=O)N[C@@H](CC(C)C)C(=O)N[C@@H](Cc1ccccc1)C(N)=O [WLGKIWEGIKSLF]
MIC [10]: 0.78 µM (≈ 1.23 µg/mL) | MIC [11]: 0.78 µM (≈ 1.23 µg/mL) | MIC [12]: 3.13 µM (≈ 4.93 µg/mL) | MIC [13]: 1.56 µM (≈ 2.46 µg/mL) | MIC [14]: 12.5 µM (≈ 19.7 µg/mL) | MIC [15]: 1.56 µM (≈ 2.46 µg/mL) | MIC [16]: 0.78 µM (≈ 1.23 µg/mL) | MIC [17]: 12.5 µM (≈ 19.7 µg/mL) | MIC [18]: 0.78 µM (≈ 1.23 µg/mL) | MIC [19]: 1.6 µM (≈ 2.52 µg/mL)

SMILES: CC[C@H](C)[C@H](NC(=O)[C@H](CC(=O)O)NC(=O)[C@H](Cc1c[nH]c2ccccc12)NC(=O)[C@H](CCCCN)NC(=O)[C@@H]1CCCN1C(=O)[C@H](CC(C)C)NC(=O)[C@H](CCSC)NC(=O)[C@H](Cc1ccc(O)cc1)NC(=O)[C@H](CC(C)C)NC(=O)[C@H](CC(N)=O)NC(=O)[C@@H](NC(=O)CN)[C@@H](C)O)C(=O)N1CCC[C@H]1C(N)=O [GTNLYMLPKWDIP]
MIC [20]: 16 µM (≈ 24.7 µg/mL) | MIC [21]: 32 µM (≈ 49.5 µg/mL) | MIC [22]: ≥ 32 µM | MIC [23]: 4 µM (≈ 6.19 µg/mL) | MIC [24]: 8 µM (≈ 12.4 µg/mL) | MIC [25]: ≥ 32 µM | MIC [26]: 1 µM (≈ 1.55 µg/mL) | MIC [27]: 16 µM (≈ 24.7 µg/mL) | MIC [28]: 2 µM (≈ 3.09 µg/mL) | MIC [29]: 16 µM (≈ 24.7 µg/mL) | MIC [30]: 0.5 µM (≈ 0.773 µg/mL)

SMILES: CC[C@H](C)[C@H](NC(=O)[C@H](CCCCN)NC(=O)[C@H](CCC(=O)O)NC(=O)[C@H](CO)NC(=O)[C@H](CCCN=C(N)N)NC(=O)[C@@H](N)CO)C(=O)N[C@H](C(=O)N[C@@H](Cc1cnc[nH]1)C(=O)N[C@@H](CCC(N)=O)C(=O)N[C@@H](CC(C)C)C(=O)N[C@@H](Cc1ccccc1)C(N)=O)C(C)C [SRSEKIVHQLF]
MIC [31]: ≥ 298 µM | MIC [32]: ≥ 298 µM | MIC [33]: > 298 µM | MIC [34]: > 298 µM | MIC [35]: ≥ 298 µM
